From patent US12637480B2, “Heterocyclic compounds as sting modulators” (BEIGENE, LTD., priority 2020, dated 2026) come the findings set out here.

The target of test [1] is human STING (hSTING) R232 variant in THP1-Dual KI-hSTING-R232 Cells (Homo sapiens, UniProt Q86WV6, H232R). Nature of the test: STING cellular assay in THP1-Dual KI-hSTING-R232 cells (ISG54 Lucia luciferase reporter, QUANTI-Luc). On the technique in general: A reporter such as luciferase makes a cellular process visible.
Test [2] addresses human STING (hSTING) HAQ variant in THP1-Dual HAQ Cells (Homo sapiens, UniProt Q86WV6, G230A/H232R/R293Q/R71H). Nature of the test: STING cellular assay in THP1-Dual HAQ cells (ISG54 Lucia luciferase reporter, QUANTI-Luc).

Usually pEC50 stands for the negative decadic logarithm of the EC50, by convention in mol/L. Higher therefore signals a small EC50.

Structures are written as SMILES. pEC50: −log10 of the molar value. Counter-ions that a name gives are not always drawn.

Chain of human STING (hSTING) HAQ variant in THP1-Dual HAQ Cells (Q86WV6 whole entry R71H/G230A/H232R/R293Q): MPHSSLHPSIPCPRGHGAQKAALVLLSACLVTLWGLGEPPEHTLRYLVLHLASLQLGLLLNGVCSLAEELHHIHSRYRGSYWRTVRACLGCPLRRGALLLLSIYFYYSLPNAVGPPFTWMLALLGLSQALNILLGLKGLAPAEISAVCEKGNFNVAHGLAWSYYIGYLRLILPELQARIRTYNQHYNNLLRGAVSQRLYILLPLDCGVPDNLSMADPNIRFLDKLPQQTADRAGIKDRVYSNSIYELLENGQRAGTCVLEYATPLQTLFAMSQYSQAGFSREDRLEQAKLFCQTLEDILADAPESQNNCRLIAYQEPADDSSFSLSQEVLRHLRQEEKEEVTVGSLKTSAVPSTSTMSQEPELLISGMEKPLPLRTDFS
Chain of human STING (hSTING) R232 variant in THP1-Dual KI-hSTING-R232 Cells (Q86WV6 whole entry H232R): as the sequence (Q86WV6 whole entry R71H/G230A/H232R/R293Q) above, with H71R, A230G, Q293R counted along it

Take `CCn1nc(C)cc1C(=O)Nc1nc2cc(C(N)=O)cnc2n1C/C=C/Cn1c2nc(-c3cc(C)nn3CC)ncc2c2cc(C(N)=O)cc(OCCC3CCN(C(=O)OC(C)(C)C)CC3)c21` [Example-6-AA, tert-butyl (E)-4-(2-((6-carbamoyl-9-(4-(6-carbamoyl-2-(1-ethyl-3-methyl-1H-pyrazole-5-carboxamido)-3H-imidazo[4,5-b]pyridin-3-yl)but-2-en-1-yl)-2-(1-ethyl-3-methyl-1H-pyrazol-5-yl)-9H-pyrimido[4,5-b]indol-8-yl)oxy)ethyl)piperidin-1-carboxylate]: the pEC50 in test [1] was 9.05; in test [2] it was 7.31.

For the compound `CCn1nc(C)cc1C(=O)Nc1nc2cc(C(N)=O)cnc2n1C/C=C/Cn1c2nc(-c3cc(C)nn3CC)ncc2c2cc(C(N)=O)cc(OCCCCNC)c21` [Example 3-AB-HCl, (E)-9-(4-(6-carbamoyl-2-(1-ethyl-3-methyl-1H-pyrazole-5-carboxamido)-3H-imidazo[4,5-b]pyridin-3-yl)but-2-en-1-yl)-2-(1-ethyl-3-methyl-1H-pyrazol-5-yl)-8-(4-(methylamino)butoxy)-9H-pyrimido[4,5-b]indole-6-carboxamide hydrochloride], the results for the pEC50 in test [1] and in test [2] were 7.64 and 6.19, respectively.

Regarding `CCn1nc(C)cc1C(=O)Nc1nc2cc(C(N)=O)cnc2n1C/C=C/Cn1c2nc(-c3cc(C)nn3CC)ncc2c2cc(C(N)=O)cc(OCCCN3CCN(C(=O)CON)CC3)c21` [Example 2-AC, (E)-8-(3-(4-(2-(aminooxy)acetyl)piperazin-1-yl)propoxy)-9-(4-(6-carbamoyl-2-(1-ethyl-3-methyl-1H-pyrazole-5-carboxamido)-3H-imidazo[4,5-b]pyridin-3-yl)but-2-en-1-yl)-2-(1-ethyl-3-methyl-1H-pyrazol-5-yl)-9H-pyrimido[4,5-b]indole-6-carboxamide], the pEC50 was 8.00 in test [1] and 6.93 in test [2].

In the case of `CCn1nc(C)cc1C(=O)Nc1nc2cc(C(N)=O)cnc2n1C/C=C/Cn1c2nc(-c3cc(C)nn3CC)ncc2c2cc(C(N)=O)cc(OCCC3CCNCC3)c21` [Example 6-AB], the pEC50 is 7.54 in test [1] and 6.17 in test [2].

In the case of `CCn1nc(C)cc1C(=O)Nc1nc2cc(C(N)=O)cnc2n1C/C=C/Cn1c2nc(-c3cc(C)nn3CC)ncc2c2cc(C(N)=O)cc(OCCCN(C)C(=O)CON)c21` [Example 1-AC], the pEC50 was 8.44 in test [1] and 7.47 in test [2].

For the compound `CCn1nc(C)cc1C(=O)Nc1nc2cc(C(N)=O)cnc2n1C/C=C/Cn1c2nc(-c3cc(C)nn3CC)ncc2c2cc(C(N)=O)cc(OCCCNC)c21` [Example 1-AB, (E)-9-(4-(6-carbamoyl-2-(1-ethyl-3-methyl-1H-pyrazole-5-carboxamido)-3H-imidazo[4,5-b]pyridin-3-yl)but-2-en-1-yl)-2-(1-ethyl-3-methyl-1H-pyrazol-5-yl)-8-(3-(methylamino)propoxy)-9H-pyrimido[4,5-b]indole-6-carboxamide], the pEC50 was 8.21 in test [1] and 6.45 in test [2].

With `CCn1nc(C)cc1C(=O)Nc1nc2cc(C(N)=O)cnc2n1C/C=C/Cn1c2nc(-c3cc(C)nn3CC)ncc2c2cc(C(N)=O)cc(OCCCCN(C)C(=O)OC(C)(C)C)c21` [Example 3-AA, tert-butyl (E)-(4-((6-carbamoyl-9-(4-(6-carbamoyl-2-(1-ethyl-3-methyl-1H-pyrazole-5-carboxamido)-3H-imidazo[4,5-b]pyridin-3-yl)but-2-en-1-yl)-2-(1-ethyl-3-methyl-1H-pyrazol-5-yl)-9H-pyrimido[4,5-b]indol-8-yl)oxy)butyl)(methyl)carbamate], the pEC50 in test [1] is 9.28; in test [2] it was 8.39.

`CCn1nc(C)cc1C(=O)Nc1nc2cc(C(N)=O)cnc2n1C/C=C/Cn1c2nc(-c3cc(C)nn3CC)ncc2c2cc(C(N)=O)cc(OCCCN3CCN(C(=O)OC(C)(C)C)CC3)c21` [Example 2-AA, tert-butyl (E)-4-(3-((6-carbamoyl-9-(4-(6-carbamoyl-2-(1-ethyl-3-methyl-1H-pyrazole-5-carboxamido)-3H-imidazo[4,5-b]pyridin-3-yl)but-2-en-1-yl)-2-(1-ethyl-3-methyl-1H-pyrazol-5-yl)-9H-pyrimido[4,5-b]indol-8-yl)oxy)propyl)piperazine-1-carboxylate]: the pEC50 in test [1] was 9.34; in test [2], 8.62.

`CCn1nc(C)cc1C(=O)Nc1nc2cc(C(N)=O)cnc2n1C/C=C/Cn1c2nc(-c3cc(C)nn3CC)ncc2c2cc(C(N)=O)cc(OCCCC3CCNCC3)c21` [Example 7-AB]: the pEC50 was 7.80 in test [1] and 6.52 in test [2].

With `CCn1nc(C)cc1C(=O)Nc1nc2cc(C(N)=O)cnc2n1C/C=C/Cn1c2nc(-c3cc(C)nn3CC)ncc2c2cc(C(N)=O)cc(OCCCC3CCN(C(=O)OC(C)(C)C)CC3)c21` [Example 7-AA, tert-butyl (E)-4-(3-((6-carbamoyl-9-(4-(6-carbamoyl-2-(1-ethyl-3-methyl-1H-pyrazole-5-carboxamido)-3H-imidazo[4,5-b]pyridin-3-yl)but-2-en-1-yl)-2-(1-ethyl-3-methyl-1H-pyrazol-5-yl)-9H-pyrimido[4,5-b]indol-8-yl)oxy)propyl)piperidine-1-carboxylate], the pEC50 in test [1] is 9.00; in test [2], 7.55.

As for `CCn1nc(C)cc1C(=O)Nc1nc2cc(C(N)=O)cnc2n1C/C=C/Cn1c2nc(-c3cc(C)nn3CC)ncc2c2cc(C(N)=O)cc(OCCC3CN(C(=O)OC(C)(C)C)C3)c21` [Example 4-AA, tert-butyl (E)-3-(2-((6-carbamoyl-9-(4-(6-carbamoyl-2-(1-ethyl-3-methyl-1H-pyrazole-5-carboxamido)-3H-imidazo[4,5-b]pyridin-3-yl)but-2-en-1-yl)-2-(1-ethyl-3-methyl-1H-pyrazol-5-yl)-9H-pyrimido[4,5-b]indol-8-yl)oxy)ethyl)azetidine-1-carboxylate], the pEC50 is 9.11 in test [1] and 8.32 in test [2].

As for `CCn1nc(C)cc1C(=O)Nc1nc2cc(C(N)=O)cnc2n1C/C=C/Cn1c2nc(-c3cc(C)nn3CC)ncc2c2cc(C(N)=O)cc(OCCCC3CN(C(=O)OC(C)(C)C)C3)c21` [Example 5-AA, tert-butyl (E)-3-(3-((6-carbamoyl-9-(4-(6-carbamoyl-2-(1-ethyl-3-methyl-1H-pyrazole-5-carboxamido)-3H-imidazo[4,5-b]pyridin-3-yl)but-2-en-1-yl)-2-(1-ethyl-3-methyl-1H-pyrazol-5-yl)-9H-pyrimido[4,5-b]indol-8-yl)oxy)propyl)azetidine-1-carboxylate], the values for the pEC50 in test [1] and in test [2] were 8.80 and 7.41, respectively.

Take `CCn1nc(C)cc1C(=O)Nc1nc2cc(C(N)=O)cnc2n1C/C=C/Cn1c2nc(-c3cc(C)nn3CC)ncc2c2cc(C(N)=O)cc(OCCCN3CCNCC3)c21` [Example 2-AB-HCl, (E)-9-(4-(6-carbamoyl-2-(1-ethyl-3-methyl-1H-pyrazole-5-carboxamido)-3H-imidazo[4,5-b]pyridin-3-yl)but-2-en-1-yl)-2-(1-ethyl-3-methyl-1H-pyrazol-5-yl)-8-(3-(piperazin-1-yl)propoxy)-9H-pyrimido[4,5-b]indole-6-carboxamide hydrochloride]: the pEC50 in test [1] is 7.96; in test [2], 6.25.

Take `CCn1nc(C)cc1C(=O)Nc1nc2cc(C(N)=O)cnc2n1C/C=C/Cn1c2nc(-c3cc(C)nn3CC)ncc2c2cc(C(N)=O)cc(OCCCC3CNC3)c21` [Example 5-AB, (E)-8-(3-(azetidin-3-yl)propoxy)-9-(4-(6-carbamoyl-2-(1-ethyl-3-methyl-1H-pyrazole-5-carboxamido)-3H-imidazo[4,5-b]pyridin-3-yl)but-2-en-1-yl)-2-(1-ethyl-3-methyl-1H-pyrazol-5-yl)-9H-pyrimido[4,5-b]indole-6-carboxamide]: the pEC50 was 7.57 in test [1] and 6.06 in test [2].

Regarding `CCn1nc(C)cc1C(=O)Nc1nc2cc(C(N)=O)cnc2n1C/C=C/Cn1c2nc(-c3cc(C)nn3CC)ncc2c2cc(C(N)=O)cc(OCCCN(C)C(=O)OC(C)(C)C)c21` [Example 1-AA], the pEC50 is 9.24 in test [1] and 8.47 in test [2].

Regarding `CCn1nc(C)cc1C(=O)Nc1nc2cc(C(N)=O)cnc2n1C/C=C/Cn1c2nc(-c3cc(C)nn3CC)ncc2c2cc(C(N)=O)cc(OCCC3CNC3)c21` [Example 4-AB, (E)-8-(2-(azetidin-3-yl)ethoxy)-9-(4-(6-carbamoyl-2-(1-ethyl-3-methyl-1H-pyrazole-5-carboxamido)-3H-imidazo[4,5-b]pyridin-3-yl)but-2-en-1-yl)-2-(1-ethyl-3-methyl-1H-pyrazol-5-yl)-9H-pyrimido[4,5-b]indole-6-carboxamide], the pEC50 in test [1] was 7.52; in test [2] it was 5.98.
